Laboratory results published in ChEMBL document CHEMBL1201862, “PubChem BioAssay data set” (2004).
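Each compound was tested at five concentrations against cells in 96-well plates for 48 hours. Here, GI50 denotes the concentration required for 50% inhibition of growth.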 Calls of active or inactive are those of the source. Rule as the data show it: active = GI50 up to about 1.1 µM and inactive = higher.

How the values were obtained:
Test in all cases: DTP human tumour cell line panel, 48 h
[1] = test system: MCF7
[2] = test system: COLO 205
[3] = test system: Malme-3M
[4] = test system: MDA-MB-231
[5] = test system: CAKI-1
[6] = test system: NCI-H522
[7] = test system: IGROV-1
[8] = test system: HT-29
[9] = test system: NCI-H23
[10] = test system: T47D
[11] = test system: SF-295
[12] = test system: UACC-257
[13] = test system: NCI/ADR-RES
[14] = test system: Hs-578T
[15] = test system: KM12
[16] = test system: RXF 393
[17] = test system: DU-145
[18] = test system: OVCAR-8
[19] = test system: SK-MEL-28
[20] = test system: K562

SMILES | GI50 [1] | GI50 [2] | GI50 [3] | GI50 [4] | GI50 [5] | GI50 [6] | GI50 [7] | GI50 [8] | GI50 [9] | GI50 [10] | GI50 [11] | GI50 [12] | GI50 [13] | GI50 [14] | GI50 [15] | GI50 [16] | GI50 [17] | GI50 [18] | GI50 [19] | GI50 [20]
O=C(CSc1nc2ccccc2c(=O)n1-c1ccccc1)N/N=C1\C(=O)Nc2ccc(Br)cc21 | 3.49 µM (inactive) | 3.74 µM (inactive) | 2.26 µM (inactive) | 1.65 µM (inactive) | 2.48 µM (inactive) | 3.4 µM (inactive) | 2.14 µM (inactive) | 1.69 µM (inactive) | 3.42 µM (inactive) | 4.92 µM (inactive) | 2.81 µM (inactive) | 5.94 µM (inactive) | 2.99 µM (inactive) | 7.05 µM (inactive) | 2.44 µM (inactive) | 2.62 µM (inactive) | 2.13 µM (inactive) | 1.85 µM (inactive) | 3.35 µM (inactive) | 3.2 µM (inactive)
Cn1nc2ccc(Nc3cc(=O)[nH]c4ccc5nn(C)nc5c34)cc2n1 | > 100 µM (inactive) | > 100 µM (inactive) | > 100 µM (inactive) | > 100 µM (inactive) | > 100 µM (inactive) | 65.6 µM (inactive) | 50.5 µM (inactive) | > 100 µM (inactive) | > 100 µM (inactive) | > 100 µM (inactive) | > 100 µM (inactive) | > 100 µM (inactive) | > 100 µM (inactive) | > 100 µM (inactive) | > 100 µM (inactive) | > 100 µM (inactive) | > 100 µM (inactive) | > 100 µM (inactive) | > 100 µM (inactive) | 50 µM (inactive)
N=C(N)NCCNC(=N)N | > 100 µM (inactive) | > 100 µM (inactive) | 37.5 µM (inactive) | > 100 µM (inactive) | > 100 µM (inactive) | > 100 µM (inactive) | > 100 µM (inactive) | > 100 µM (inactive) | > 100 µM (inactive) | 84.3 µM (inactive) | > 100 µM (inactive) | > 100 µM (inactive) | > 100 µM (inactive) | > 100 µM (inactive) | > 100 µM (inactive) | > 100 µM (inactive) | > 100 µM (inactive) | > 100 µM (inactive) | > 100 µM (inactive) | > 100 µM (inactive)
Cc1nn2c(C(=O)N/N=C/c3ccccc3O)c(C)nc2s1 | 30.8 µM (inactive) | 59.2 µM (inactive) | > 100 µM (inactive) | > 100 µM (inactive) | > 100 µM (inactive) | > 100 µM (inactive) | > 100 µM (inactive) | > 100 µM (inactive) | > 100 µM (inactive) | 61.5 µM (inactive) | 85.9 µM (inactive) | > 100 µM (inactive) | 61.4 µM (inactive) | > 100 µM (inactive) | > 100 µM (inactive) | > 100 µM (inactive) | > 100 µM (inactive) | > 100 µM (inactive) | > 100 µM (inactive) | > 100 µM (inactive)
COC1(OC)C=CC(=O)C=C1 | 1.3 µM (inactive) | 7.69 µM (inactive) | < 0.01 µM (active) | 2.9 µM (inactive) | 3.61 µM (inactive) | 0.149 µM (active) | 1.72 µM (inactive) | 3.11 µM (inactive) | 2.66 µM (inactive) | 3.22 µM (inactive) | 11 µM (inactive) | 2.4 µM (inactive) | 4.2 µM (inactive) | 9.84 µM (inactive) | 7.52 µM (inactive) | 0.701 µM (active) | 3.48 µM (inactive) | 1.83 µM (inactive) | 1.85 µM (inactive) | 2.2 µM (inactive)
